Experimental data published in patent US9204653B2, “5-fluoro pyrimidine derivatives” (DOW AGROSCIENCES LLC, priority 2008, dated 2015).
Read-outs that look alike come from different tables or passages of the source.

System: Mycosphaerella graminicola; Anamorph: Septoria tritici; Bayer Code SEPTTR
Test: Leaf blotch of wheat, foliar fungicide treatment, one day protectant (1DP) or three day curative (3DC)
Format: in vivo, Septoria tritici on wheat plants (variety Yuma)
Details: Zymoseptoria tritici, percent disease control rating
[1] = 24 h, one day protectant (1DP), read-out: SETTTR 1DP 25 ppm
[2] = 24 h, one day protectant (1DP), read-out: SEPTTR 1DP 100 ppm
[3] = 72 h, three day curative (3DC), read-out: SEPTTR 3DC 25 ppm
[4] = 72 h, three day curative (3DC), read-out: SEPTTR 3DC 100 ppm

Structure (SMILES)	pest or weed control at 25 ppm [1]	pest or weed control at 100 ppm [2]	pest or weed control at 25 ppm [3]	pest or weed control at 100 ppm [4]
Nc1nc(OCc2cc(C(F)(F)F)cc(C(F)(F)F)c2)ncc1F [Compound 139]	26 to 50%	51 to 75%	0 to 25%	26 to 50%
Cc1cccc(C)c1C(=O)Oc1ncc(F)c(/N=C/N(C)C)n1 [Compound 140]	76 to 100%	76 to 100%	76 to 100%	76 to 100%
N#Cc1cccc(COc2ncc(F)c(NC(=O)Nc3ccccc3F)n2)c1 [Compound 142]	0 to 25%	0 to 25%	0 to 25%	0 to 25%
Nc1nc(OCc2cccc(C(F)(F)F)c2F)ncc1F [Compound 144]	76 to 100%	76 to 100%	76 to 100%	76 to 100%
Cc1ccc(C(C)Oc2ncc(F)c(N)n2)cc1C (centres unmarked) [Compound 145]	76 to 100%	76 to 100%	76 to 100%	76 to 100%
CC(C)N(O)c1nc(OCc2ccc(F)cc2)ncc1F [Compound 147]	0 to 25%	51 to 75%	26 to 50%	26 to 50%
COc1cccc(COc2ncc(F)c(N/N=C\c3nc(C)cs3)n2)c1 [Compound 148]	51 to 75%	51 to 75%	0 to 25%	0 to 25%
CC(Oc1ncc(F)c(NC(=O)c2ccccc2)n1)c1ccc(F)cc1 (centres unmarked) [Compound 149]	26 to 50%	76 to 100%	0 to 25%	51 to 75%
CCOC(=O)Nc1nc(OCc2ccccc2OC)ncc1F [Compound 150]	0 to 25%	76 to 100%	26 to 50%	76 to 100%
O=[N+]([O-])c1ccccc1SNc1nc(OCc2ccc3c(c2)OCO3)ncc1F [Compound 151]	0 to 25%	0 to 25%	26 to 50%	26 to 50%
Cc1cc(/C=N/Nc2nc(OCc3ccccc3)ncc2F)n(C)n1 [Compound 152]	26 to 50%	76 to 100%	26 to 50%	76 to 100%
N#Cc1cccc(COc2ncc(F)c(NCO)n2)c1 [Compound 153]	76 to 100%	76 to 100%	76 to 100%	76 to 100%
Nc1nc(OCc2c(F)cc(Br)cc2F)ncc1F [Compound 154]	76 to 100%	76 to 100%	76 to 100%	76 to 100%
Nc1nc(OCc2ccc(F)c(Br)c2)ncc1F [Compound 156]	76 to 100%	76 to 100%	76 to 100%	76 to 100%
O=[N+]([O-])c1ccccc1SNc1nc(OCc2ccsc2)ncc1F [Compound 157]	26 to 50%	76 to 100%	26 to 50%	26 to 50%
COCCCOc1ncc(F)c(NC(=O)Nc2ccsc2)n1 [Compound 159]	0 to 25%	0 to 25%	26 to 50%	0 to 25%
CN1CCCC/C1=N\c1nc(OCc2ccc(F)cc2)ncc1F [Compound 160]	76 to 100%	76 to 100%	76 to 100%	76 to 100%
COc1cccc(COc2ncc(F)c(NO)n2)c1 [Compound 161]	76 to 100%	76 to 100%	26 to 50%	76 to 100%
Cc1ccc(COc2ncc(F)c(NCOCc3ccccc3)n2)cc1 [Compound 162]	26 to 50%	76 to 100%	0 to 25%	0 to 25%
N#Cc1cccc(COc2ncc(F)c(NCOCc3ccccc3)n2)c1 [Compound 167]	0 to 25%	26 to 50%	0 to 25%	0 to 25%
Fc1ccccc1CNc1nc(OCc2cccs2)ncc1F [Compound 168]	0 to 25%	26 to 50%	0 to 25%	26 to 50%
CCCNC(=O)Nc1nc(OCc2ccc(OC)c(F)c2)ncc1F [Compound 170]	0 to 25%	0 to 25%	0 to 25%	0 to 25%
CCc1ccc(COc2ncc(F)c(N)n2)cc1 [Compound 171]	76 to 100%	76 to 100%	76 to 100%	76 to 100%
